Data on 2 compounds can be found in patent US20040166060A1, “Liposomal encapsulation of alpha particle emittors and uses thereof” (Sloan Kettering Institute for Cancer Research, priority 2000, published 2004).

The nature of data set [1]: Biodistribution of In-111-DTPA and large liposomes. Conditions: in vivo. From the text: FIGS. 10A-10C depict the biodistribution of ^111In-DTPA only (FIG. 10A) zwitterionic liposomes (FIG. 10B), ^111In-DTPA cationic liposomes (FIG. 10C).
Over time the percentage per gram of tissue tested of the original amount of In-111 found in the spleen and liver increases while that in blood and other tissues such as heart, lungs, stomach, intestines, kidneys, bone, and muscle remain constant or decrease. […] Preinjection with empty large liposomes to saturate the reticuloendothelial organs will reduce non-specific radionuclide uptake by the spleen and liver.

A further data set deals with myeloid leukemia. As to conditions: first injection of an alpha-particle emitter to humans; cited from earlier work.

With `O=C([O-])CN(CCN(CC(=O)[O-])CC(=O)[O-])CCN(CC(=O)[O-])CC(=O)[O-].[111In+3].[H+].[H+]` [DTPA-chelated In-111], in data set [1], the “tissue localization of In-111” value was “localize to the kidneys more than to other tissues”.

Take “HuM195: 213Bi conjugated to the anti-CD33 antibody HuM195”: in the data set with myeloid leukemia, the trial outcome is “feasibility and anti-cancer activity with minimal toxicity”.
